Data taken from PubChem BioAssay AID2060902 (Molecular Pharmacology Branch, DTP, NCI, 2025).

Tested on: 485368-065-R3-J5-PDC spheroids with HUVEC/MSC, viability
Assay: Anticancer human tumor 485368-065-R3-J5-PDC patient-derived pancreatic carcinoma cell line growth inhibition [RAS]
Conditions: for IC50: curve of first compound; for viability, T/C: stronger effect = lower value
Description: RAS pathway inhibitors in Combinations in Complex Spheroids
A high-throughput screen of multi-cell type tumor spheroids was designed to identify active combinations of RAS pathway inhibitors and targeted small molecules. Complex spheroids include a stromal component modeled by human endothelial cells (HUVEC) and fibroblasts modeled by human mesenchymal stem cells (MSCs). The concentration ranges selected for each drug and investigational agent were based upon clinically achievable concentrations if the clinical Cmax of the agent was known.
Compounds. The drugs and investigational agents: abemaciclib (NSC768073), cobimetinib (NSC768068), divarasib (GDC6063, NSC841802), docetaxel (NSC628503), GDC-1971 (RLY-1971, NSC841576), gemcitabine (NSC613327), inavolisib (NSC800729), ipatasertib (NSC767898), KB-0742 (NSC834161), MRTX-1133 (NSC836407), osimertinib (NSC779217), RMC-4630 (NSC839698), RMC-6236 (NSC851965), RMC-6291 (NSC852671), Ro-3306 (NSC812927), sapanisertib (NSC764658), SN-38 (NSC673596), staurosporine (NSC755774), SY5609 (NSC837396), and tovorafenib (DAY101, NSC766906), were obtained from the National Cancer Institute (NCI) Developmental Therapeutics Program Chemical Repository. The FDA-approved anticancer drug set is available from the NCI Developmental Therapeutics Program. […] The stock solutions were prepared in dimethyl sulfoxide (DMSO, Sigma-Aldrich, St. Louis, MO, cat. D2650) at 800-fold the tested concentration and stored at -70 degrees C prior to their use. All drugs and investigational agents were tested over a range starting from a high concentration at or near the clinical Cmax and decreasing in half-log increments. If the clinical Cmax for an agent had not been determined, the highest concentration tested was 10 microM.
Cell Culture. All cells were maintained in an incubator at 37 degrees C and 5% CO2 with 95% humidity. The PDC lines were cultured according to standard operating procedures established by the NCI PDMR. All PDCs were thawed and cultured in Matrigel-coated flasks prepared with a working solution of 1X Ham's F-12 nutrient mix, without supplementation (Invitrogen, Waltham, MA, cat. 11765054), 100 U/mL penicillin-streptomycin (Invitrogen, cat. 15140122), and 2.5% Matrigel (Corning Inc., Corning, NY, cat. 354248) for the first three passages. The 362531-283-R-J2-PDC and 782815-120-R-J1-PDC lines were cultured in 6C/Colon 1B media, which includes advanced DMEM/F-12 (Thermo Fisher Scientific, cat. 12634028), 10 mM HEPES (Thermo Fisher Scientific, cat. 15630080), 1X GlutaMAX supplement (Thermo Fisher Scientific, cat. 35050061), 0.1 mg/mL primocin (InvivoGen, San Diego, CA, cat. ant-pm-2), 10% defined fetal bovine serum, heat inactivated (HyClone Laboratories Inc., Logan, UT, cat. SH30070.03HI), 50% L-WRN conditioned media (ATCC, cat. CRL-3276), 1.25 mM N-Acetyl-L-cysteine (Sigma-Aldrich, cat. A9165), 10 mM nicotinamide (Sigma-Aldrich, cat. N0636), 1X B-27 supplement (Thermo Fisher Scientific, cat. 17504044), 1X N-2 supplement (Thermo Fisher Scientific, cat. 17502048), 50 ng/mL human EGF (Thermo Fisher Scientific, cat. PHG0311), and 10 microM Y-27632 dihydrochloride (Tocris Bioscience, cat. 1254). The K12877-001-R-J1-PDC line was cultured in 6I media, which includes all 6C/Colon 1B media plus 10 ng/mL human FGF-10 (PeproTech, cat. 100-26), 1 ng/mL human FGF-2 (PeproTech, cat. 100-18B), 1 µM prostaglandin E2 (Tocris Bioscience, cat. 2296), […] hydrocortisone (Sigma-Aldrich, cat. H4001), and […] bovine insulin (Sigma-Aldrich, cat. I6634). The K86415-001-R-J1-PDC line was cultured in 6D media, which includes all 6C/Colon 1B media components minus the L-WRN conditioned media. The 485176-168-R4-J1-PDC was cultured in PANC media, which includes all 6C/Colon 1B media plus 100 ng/mL human FGF-10 (PeproTech, cat. 100-26), 500 nM SB-431542 (Selleckchem, cat. S1067), and 10 nM gastrin (Tocris Bioscience, cat. 3006). […]

[1] = second compound 0.0316 µM, first compound 0.0316 µM
[2] = second compound 0.0316 µM, first compound 0.1 µM
[3] = second compound 0.0316 µM, first compound 0.316 µM
[4] = second compound 0.0316 µM, first compound 1 µM
[5] = second compound 0.0316 µM, first compound 3.16 µM
[6] = second compound 0.0316 µM, first compound 10 µM
[7] = second compound 0.1 µM, first compound 0.0316 µM
[8] = second compound 0.1 µM, first compound 0.1 µM
[9] = second compound 0.1 µM, first compound 0.316 µM
[10] = second compound 0.1 µM, first compound 1 µM
[11] = second compound 0.1 µM, first compound 3.16 µM
[12] = second compound 0.1 µM, first compound 10 µM
[13] = second compound 0.316 µM, first compound 0.0316 µM
[14] = second compound 0.316 µM, first compound 0.1 µM
[15] = second compound 0.316 µM, first compound 0.316 µM
[16] = second compound 0.316 µM, first compound 1 µM
[17] = second compound 0.316 µM, first compound 3.16 µM
[18] = second compound 0.316 µM, first compound 10 µM
[19] = second compound 1 µM, first compound 0.0316 µM
[20] = second compound 1 µM, first compound 0.1 µM
[21] = second compound 1 µM, first compound 0.316 µM
[22] = second compound 1 µM, first compound 1 µM
[23] = second compound 1 µM, first compound 3.16 µM
[24] = second compound 1 µM, first compound 10 µM
[25] = second compound 3.16 µM, first compound 0.0316 µM
[26] = second compound 3.16 µM, first compound 0.1 µM
[27] = second compound 3.16 µM, first compound 0.316 µM
[28] = second compound 3.16 µM, first compound 1 µM
[29] = second compound 3.16 µM, first compound 3.16 µM
[30] = second compound 3.16 µM, first compound 10 µM
[31] = second compound 10 µM, first compound 0.0316 µM
[32] = second compound 10 µM, first compound 0.1 µM
[33] = second compound 10 µM, first compound 0.316 µM
[34] = second compound 10 µM, first compound 1 µM
[35] = second compound 10 µM, first compound 3.16 µM
[36] = second compound 10 µM, first compound 10 µM
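Also: spheroids exposed to agents for seven days before readout.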

## CC(C)NCC(C(=O)N1CCN(c2ncnc3c2C(C)CC3O)CC1)c1ccc(Cl)cc1 (centres undefined) + C#Cc1c(F)ccc2cc(O)cc(-c3ncc4c(N5CC6CCC(C5)N6)nc(OCC56CCCN5CC(F)C6)nc4c3F)c12
Second compound 0.0316 µM
  IC50: > 10 µM
Second compound 0.1 µM
  IC50: > 10 µM
Second compound 0.316 µM
  IC50: > 10 µM
Second compound 1 µM
  IC50: 8.24 µM
Second compound 3.16 µM
  IC50: 4.34 µM
Second compound 10 µM
  IC50: < 0.0316 µM
[1]
  viability, T/C: 116%
[2]
  viability, T/C: 98.7%
[3]
  viability, T/C: 89.3%
[4]
  viability, T/C: 93.5%
[5]
  viability, T/C: 77.1%
[6]
  viability, T/C: 57.8%
[7]
  viability, T/C: 101%
[8]
  viability, T/C: 88.8%
[9]
  viability, T/C: 90.3%
[10]
  viability, T/C: 83.3%
[11]
  viability, T/C: 77.2%
[12]
  viability, T/C: 57.9%
[13]
  viability, T/C: 99%
[14]
  viability, T/C: 101%
[15]
  viability, T/C: 93.9%
[16]
  viability, T/C: 87.9%
[17]
  viability, T/C: 71.2%
[18]
  viability, T/C: 55%
[19]
  viability, T/C: 104%
[20]
  viability, T/C: 106%
[21]
  viability, T/C: 93.5%
[22]
  viability, T/C: 74.9%
[23]
  viability, T/C: 61.9%
[24]
  viability, T/C: 47%
[25]
  viability, T/C: 73.7%
[26]
  viability, T/C: 74%
[27]
  viability, T/C: 75.2%
[28]
  viability, T/C: 70.8%
[29]
  viability, T/C: 54.2%
[30]
  viability, T/C: 38.9%
[31]
  viability, T/C: 44.1%
[32]
  viability, T/C: 39.4%
[33]
  viability, T/C: 40.3%
[34]
  viability, T/C: 35.4%
[35]
  viability, T/C: 35.3%
[36]
  viability, T/C: 26.9%

## CC(Nc1ccc2c(c1)OCCn1cc(N3C(=O)OCC3C(F)F)nc1-2)C(N)=O (centres undefined) + C#Cc1c(F)ccc2cc(O)cc(-c3ncc4c(N5CC6CCC(C5)N6)nc(OCC56CCCN5CC(F)C6)nc4c3F)c12
Second compound 0.0316 µM
  IC50: > 10 µM
Second compound 0.1 µM
  IC50: > 10 µM
Second compound 0.316 µM
  IC50: 9.82 µM
Second compound 1 µM
  IC50: > 10 µM
Second compound 3.16 µM
  IC50: 1.61 µM
Second compound 10 µM
  IC50: < 0.0316 µM
[1]
  viability, T/C: 95.9%
[2]
  viability, T/C: 93.4%
[3]
  viability, T/C: 85.4%
[4]
  viability, T/C: 80.1%
[5]
  viability, T/C: 74.5%
[6]
  viability, T/C: 51.9%
[7]
  viability, T/C: 101%
[8]
  viability, T/C: 90.3%
[9]
  viability, T/C: 82.4%
[10]
  viability, T/C: 91.2%
[11]
  viability, T/C: 77.9%
[12]
  viability, T/C: 57.2%
[13]
  viability, T/C: 92.7%
[14]
  viability, T/C: 93.5%
[15]
  viability, T/C: 91.5%
[16]
  viability, T/C: 85.7%
[17]
  viability, T/C: 81.7%
[18]
  viability, T/C: 48.8%
[19]
  viability, T/C: 83.4%
[20]
  viability, T/C: 85.8%
[21]
  viability, T/C: 90.7%
[22]
  viability, T/C: 72.6%
[23]
  viability, T/C: 69.1%
[24]
  viability, T/C: 51.5%
[25]
  viability, T/C: 73.4%
[26]
  viability, T/C: 56.2%
[27]
  viability, T/C: 54.5%
[28]
  viability, T/C: 60.5%
[29]
  viability, T/C: 46.8%
[30]
  viability, T/C: 32.8%
[31]
  viability, T/C: 33.8%
[32]
  viability, T/C: 31%
[33]
  viability, T/C: 24.6%
[34]
  viability, T/C: 25.9%
[35]
  viability, T/C: 21%
[36]
  viability, T/C: 18.6%
